According to patent publication US5223485A, “Anaphylatoxin-receptor ligands” (Abbott Laboratories, priority 1991, dated 1993):
Square brackets hold non-standard residues; d marks the D form. Peptide text beside a SMILES is read from it. Cha = N[C@@H](CC1CCCCC1)C(=O)O; dNMeA = CN[C@H](C)C(=O)O

What follows are compounds tested against T1, C5a Receptor (Homo sapiens, UniProt P21730) (assay: Anaphylatoxin receptor binding Ki determination: inhibition of 125I-C5a binding to PMNL membrane fragments). Settings: 0.03-1 nM 125I-C5a, 2.5-25 μg/mL purified PMNL membrane fragments, filtration; read-out: In vitro C5a Receptor Binding Potency Ki.
T1 construct: 2.5-25 μg/mL of purified PMNL membrane fragments; from tissue; host or cells: polymorphonuclear leukocyte (PMNL) membrane fragments
T1 sequence (P21730 1-350): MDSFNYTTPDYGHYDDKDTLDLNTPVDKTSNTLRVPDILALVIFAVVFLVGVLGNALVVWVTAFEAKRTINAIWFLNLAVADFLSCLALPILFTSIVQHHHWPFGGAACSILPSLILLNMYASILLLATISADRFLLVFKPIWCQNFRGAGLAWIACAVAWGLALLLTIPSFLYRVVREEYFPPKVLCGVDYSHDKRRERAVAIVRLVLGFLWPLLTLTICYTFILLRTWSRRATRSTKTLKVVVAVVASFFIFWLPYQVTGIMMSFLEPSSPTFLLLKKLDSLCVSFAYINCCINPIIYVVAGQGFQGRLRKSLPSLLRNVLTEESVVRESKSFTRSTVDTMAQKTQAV
Protocol: Specific inhibition of C5a binding activity of representative compounds of the present invention was measured using 0.03-1 nM ^125 I-C5a with 2.5-25 μg/mL of purified PMNL membrane fragments (Borregaard, N.; Heiple, J. M.; Simons, E. R.; and Clark, R. A. J. Cell. Biol. 1983, 97, 52-61.). Free and membrane-bound ligand were separated by filtration.

| SMILES | Ki |
| --- | --- |
| CCCC(C(=O)N[C@H](C)C(=O)N[C@@H](CCCNC(=N)N)C(=O)O)N1CCCC[C@H](NC(=O)[C@H](CC2CCCCC2)NC(=O)[C@H](Cc2c[nH]cn2)NC(=O)[C@H](CCCCN)NC(=O)[C@@H](N)Cc2ccccc2)C1=O (stereo partly drawn) [Example 150, H-Phenylalanyl-Lysyl-Histidyl-{(2S)-2-Amino-3-cyclohexylpropanoyl}-{(2'R/S,3S)-3-Amino-2-oxo-1-azepine-2'-pentanoyl}-DAlanyl-Arginyl-OH] | 110 nM |
| CC(C)C[C@H](NC(=O)CNC(=O)[C@H](CC1CCCCC1)NC(=O)[C@H](C)NC(=O)[C@H](CCCCN)NC(=O)[C@@H](N)Cc1ccccc1)C(=O)N[C@H](C)C(=O)N[C@@H](CCCNC(=N)N)C(=O)O [Example 165, H-Phenylalanyl-Lysyl-Alanyl-{(2S)-2-Amino-3-cyclohexylpropanoyl}-Glycyl-Leucyl-DAlanyl-Arginyl-OH] (H-FKA[Cha]GL[dA]R-OH) | 42 nM |
| CC(C)C[C@H](NC(=O)[C@H](CC1CCCCC1)NC(=O)[C@@H](NC(=O)[C@H](C)NC(=O)[C@H](CCCCN)NC(=O)[C@@H](N)Cc1ccccc1)[C@@H](C)O)C(=O)N[C@H](C)C(=O)N[C@@H](CCCNC(=N)N)C(=O)O [Example 182, H-Phenylalanyl-Lysysl-Alanyl-Threonyl-{(2S)-2-Amino-3-cyclohexylpropanoyl}-Leucyl-DAlanyl-Arginyl-OH] (H-FKAT[Cha]L[dA]R-OH) | 300 nM |
| CC(C)C[C@H](NC(=O)[C@H](CC1CCCCC1)NC(=O)[C@H](CC1CCCCC1)NC(=O)[C@H](C)NC(=O)[C@H](CCCCN)NC(=O)[C@@H](N)Cc1ccccc1)C(=O)N[C@@H](C)C(=O)N[C@@H](CCCNC(=N)N)C(=O)O [Example 188, H-Phenylalanyl-Lysyl-Alanyl-{(2S)-2-Amino-3-cyclohexylpropanoyl}-{(2S)-2-Amino-3-cyclohexylpropanoyl}-Leucyl-Alanyl-Arginyl-OH] (H-FKA[Cha][Cha]LAR-OH) | 210 nM |
| C[C@H](NC(=O)[C@H](CCCCN)NC(=O)[C@@H](N)Cc1ccccc1)C(=O)N[C@@H](CC1CCCCC1)C(=O)N[C@@H](CC1CCCCC1)C(=O)N[C@H](C)C(=O)N[C@H](C)C(=O)N[C@@H](CCCNC(=N)N)C(=O)O [Example 202, H-Phenylalanyl-Lysyl-Alanyl-{(2S)-2-Amino-3-cyclohexylpropanoyl}-{(2S)-2-Amino-3-cyclohexylpropanoyl}-DAlanyl-DAlanyl-Arginyl-OH] (H-FKA[Cha][Cha][dA][dA]R-OH) | 870 nM |
| CC(C)C[C@H](NC(=O)[C@H](CC1CCCCC1)NC(=O)[C@H](CC1CCCCC1)NC(=O)[C@H](C)NC(=O)[C@H](CCCCN)NC(=O)[C@@H](N)Cc1ccccc1)C(=O)N[C@H](C)C(=O)NCC(=O)N[C@@H](CCCNC(=N)N)C(=O)O [Example 213, H-Phenylalanyl-Lysyl-Alanyl-{(2S)-2-Amino-3-cyclohexylpropanoyl}-{(2S)-2-Amino-3-cyclohexylpropanoyl)-Leucyl-DAlanyl-Glycyl-Arginyl-OH] (H-FKA[Cha][Cha]L[dA]GR-OH) | 330 nM |
| CC(C)C[C@H](NC(=O)[C@@H](Cc1ccccc1)NC(=O)[C@H](CC1CCCCC1)NC(=O)[C@H](C)NC(=O)[C@H](CCCCN)NC(=O)[C@@H](N)Cc1ccccc1)C(=O)N[C@H](C)C(=O)N[C@@H](CCCNC(=N)N)C(=O)O [Example 220, H-Phenylalanyl-Lysyl-Alanyl-{(2S)-2-Amino-3-cyclohexylpropanoyl}-DPhenylalanyl-Leucyl-DAlanyl-Arginyl-OH] (H-FKA[Cha][dF]L[dA]R-OH) | 220 nM |
| CC(C)C[C@H](NC(=O)[C@H](CC1CCCCC1)NC(=O)[C@H](CC1CCCCC1)NC(=O)[C@H](C)NC(=O)[C@H](CCCCN)NC(=O)[C@@H](N)Cc1ccccc1)C(=O)N(C)[C@H](C)C(=O)N[C@@H](CCCNC(=N)N)C(=O)O [Example 229, H-Phenylalanyl-Lysyl-Alanyl-{(2S)-2-Amino-3-cyclohexylpropanoyl}-{(2S)-2-Amino-3-cyclohexylpropanoyl}-Leucyl-(N-Methyl)DAlanyl-Arginyl-OH] (H-FKA[Cha][Cha]L[dNMeA]R-OH) | 33 nM |
